According to patent US20170050966A1, “INHIBITING THE TRANSIENT RECEPTOR POTENTIAL A1 ION CHANNEL” (HYDRA BIOSCIENCES, INC., priority 2014, published 2017):
Converted amounts (≈) assume the structure as drawn. Like-named read-outs stand apart in the source and are kept apart here.

What was measured:
[1] = Solubility in Normal Ringer Solution; type: physicochemical; conditions: aqueous buffer, kinetic from dmso stock, pH 7.4, room temperature
Procedure: Compounds of the invention were also tested for solubility in Normal Ringer Solution. […] Following vortex and incubation for 40 minutes at room temperature, solutions were filtered, quenched with acetonitrile, and analyzed by liquid chromatography. Solubility limits were determined by comparison to a standard curve. […] Solubility is reported as “greater than” if the observed increase between the last 2 dilutions tested is greater than 2-fold.

[2] = Metabolic stability in liver microsomes; type: in vitro ADME
Procedure: (§1) Metabolic stability of the compounds of Formula (I) was determined by standard liver microsome assays. Briefly, metabolic stability was tested by adding the compound to be tested dissolved in DMSO to human, dog, or rat liver microsomes. Assays were run with a starting concentration of 1 μM test compound. The reaction was initiated by addition of nicotinamide adenine dinucleotide phosphate[…] (NADPH) regeneration components at 37° C., at which time an aliquot was immediately quenched in an ice-cold acetonitrile/methanol/water solution. Reaction mixture was incubated at 37° C. on a shaker, and additional aliquots were taken at 7, 15, 30 and 60 minutes. Following quench and centrifugation, samples were analyzed on HPLC/MS/MS.

[3] = system: formalin model in the rat; experiment: Formalin-induced pain test; type: in vivo
Procedure: Compound 2 was tested in the formalin-induced pain test reported by Dubuisson et al., Pain (1977) December; 4(2):161-74. Dubuisson et al describe a method for assessing pain and analgesia in rats and cats. Briefly, dilute formalin (50 μL of 3% formalin) is injected into the plantar surface of the hind paw of a rat. […] The initial phase (Phase I: 0-5 min) is thought to have a significant component that is dependent upon direct activation of afferent fibers by formalin and functional TRPA1 (McNamara et al., 2007). The individual responsible for counting the pain behaviors in a particular study is blinded to the treatment groups.
Investigators studied oral administration of Compound 2 at 1, 3 and 10 mg/kg on pain behaviors in the formalin model in the rat. Compound 2 was prepared as solutions in 4% DMSO, 10% Solutol HS15, 86% WFI. Animals were dosed orally with Vehicle (4% DMSO, 10% Solutol, 86% WFI), or Compound 2 at 1, 3 or 10 mg/kg one hour prior to intraplantar formalin. […] (n=8 per group) (*=p<0.05, **=p<0.01, *** p<0.001: 1-tailed T-test)
A reduction in the duration of pain behaviors was also observed with Compound 4 from 0-5 minutes post-formalin administration. Using the methods described above for the formalin assay, Compound 4 was formulated as a solution in 4% DMSO; 5% Tween-80; 20% Cremophor EL; and 71% WFI and administered by oral gavage to rats.
Using the methods described above for the formalin assay, Compound 4 was formulated as a suspension in 0.5% methylcellulose and administered by oral gavage to rats.
The persistence of the response was also studied. Compound 2 was prepared as a solution in 4% DMSO, 10% Solutol HS15, and 86% WFI. Rats were treated with 10 mg/kg of oral doses of Compound 2 or with the vehicle (PO).

[4] = Metabolic stability in liver microsomes; type: in vitro ADME, human; conditions: 1 μM test compound; for half-life at 1 μM: human, liver microsomes, 37° C.
Procedure: as §1

[5] = target: T1, human TRPA1 (hTRPA1) (Homo sapiens, UniProt O75762); experiment: Inhibition of human TRPA1, whole-cell patch clamp; type: cell-based
T1 construct: expressed in transfected cells
Procedure: Data for TRPA1 inhibition was obtained by this method for the indicated compounds of Formula (I), with the relevant data included in Table 14 below. All currents were recorded in whole-cell configuration using EPC-9 and EPC-10 amplifiers and Patchmaster software (HEKA). […] The standard pipette solution consisted of 140 mM CsAsp, 10 mM EGTA, 10 mM HEPES, […], 1.91 mM CaCl2, and up to 0.3 mM Na2GTP, with pH adjusted to 7.2 with CsOH. In addition, a solution containing 145 mM CsCl, 10 mM HEPES, 10 mM EGTA, and up to 0.3 mM Na2GTP and 1 mM MgCl2 (pH 7.2 adjusted with CsOH) can be used. The standard bath solution contained 150 mM NaCl, 10 mM HEPES, 10 mM glucose, 4.5 mM KCl, 1 mM EGTA, 3 mM MgCl2, with pH adjusted to 7.4 with NaOH. In some instances, 2 mM CaCl2 was added in place of EGTA and the concentration of MgCl2 was reduced to 1 mM.
Data were collected either by continuous recordings at −60 mV or by applying voltage ramps from a holding potential of 0 mV every 4 s. Continuous recordings were collected at 400 Hz and digitally filtered off-line at 10 Hz for presentation. Voltage ramps were applied from −100 mV to 100 mV over the course of 400 ms, and data were collected at 10 kHz and filtered at […]. Inward and outward currents were analyzed from the ramps at −80 and 80 mV, respectively. Liquid junction potential correction was not used.
Solutions were switched using a gravity-fed continuous focal perfusion system. To achieve rapid temperature changes, two temperature control, and perfusion systems were employed simultaneously. For temperatures greater than or equal to 22° C., a Warner Instruments bipolar temperature controller (TC-344B) and inline heater (SHM-8) were used. […] Temperatures were confirmed using a thermistor (Warner Instruments, TA-29), with temperatures at the recorded cell estimated to be within +/−2° C. of those reported.
The antagonist effects of compounds of Formula (I) against human TRPA1 (“hTRPA1”) in a whole cell patch configuration were evaluated using the in vitro assay protocol described above.

[6] = dog liver microsomes, female, read-out: Female Half-Life
[7] = rat liver microsomes, both sexes, read-out: Half-Life Both sexes
[8] = rat liver microsomes, male, read-out: Male Half-Life
[9] = antagonist effect, whole cell patch configuration, read-out: hTRPA1
[10] = 10 mg/kg PO, 1 Hr pre-treatment
[11] = 10 mg/kg PO, 2 Hr pre-treatment
[12] = 10 mg/kg PO, 4 Hr pre-treatment
[13] = 10 mg/kg PO, 6 Hr pre-treatment
[14] = 10 mg/kg PO, 15 Min pre-treatment
[15] = 10 mg/kg PO, 24 Hr pre-treatment
[16] = 10 mg/kg PO, 30 Min pre-treatment
[17] = 1 mpk PO, one hour prior to formalin
[18] = 3 mpk PO, one hour prior to formalin
[19] = 10 mpk PO, one hour prior to formalin
[20] = 1 mpk PO, solution in DMSO/Tween-80/Cremophor EL/WFI
[21] = 1 mpk PO, suspension in 0.5% methylcellulose

T1 sequence (O75762 whole entry): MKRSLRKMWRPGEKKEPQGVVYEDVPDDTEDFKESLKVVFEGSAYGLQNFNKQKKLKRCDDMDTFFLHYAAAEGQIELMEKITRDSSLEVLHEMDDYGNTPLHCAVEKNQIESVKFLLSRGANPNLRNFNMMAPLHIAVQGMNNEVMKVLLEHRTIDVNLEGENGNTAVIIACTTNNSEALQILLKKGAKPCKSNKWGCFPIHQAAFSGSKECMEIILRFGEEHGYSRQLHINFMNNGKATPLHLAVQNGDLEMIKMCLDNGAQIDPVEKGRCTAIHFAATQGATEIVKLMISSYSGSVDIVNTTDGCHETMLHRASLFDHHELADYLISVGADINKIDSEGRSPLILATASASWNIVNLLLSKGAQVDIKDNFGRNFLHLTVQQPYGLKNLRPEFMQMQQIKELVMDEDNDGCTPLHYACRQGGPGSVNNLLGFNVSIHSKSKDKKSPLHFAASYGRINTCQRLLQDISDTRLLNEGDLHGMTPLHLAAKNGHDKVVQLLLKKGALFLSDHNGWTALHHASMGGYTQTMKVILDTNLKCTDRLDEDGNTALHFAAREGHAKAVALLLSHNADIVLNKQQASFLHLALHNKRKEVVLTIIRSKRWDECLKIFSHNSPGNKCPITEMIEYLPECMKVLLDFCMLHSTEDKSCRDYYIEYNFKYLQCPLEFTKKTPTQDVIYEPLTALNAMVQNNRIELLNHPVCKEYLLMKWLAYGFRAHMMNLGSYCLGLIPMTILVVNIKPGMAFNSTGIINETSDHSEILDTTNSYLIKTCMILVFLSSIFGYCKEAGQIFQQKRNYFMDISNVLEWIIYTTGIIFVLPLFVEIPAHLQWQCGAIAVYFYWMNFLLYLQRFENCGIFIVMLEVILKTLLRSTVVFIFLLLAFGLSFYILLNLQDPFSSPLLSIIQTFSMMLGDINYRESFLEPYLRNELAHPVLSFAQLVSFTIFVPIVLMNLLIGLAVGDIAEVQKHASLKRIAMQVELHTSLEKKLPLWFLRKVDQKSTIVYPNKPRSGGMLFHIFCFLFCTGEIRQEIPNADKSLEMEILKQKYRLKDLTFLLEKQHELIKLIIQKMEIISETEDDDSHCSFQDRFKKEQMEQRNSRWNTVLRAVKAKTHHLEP

With `C[C@@H](C(=O)Nc1ccnc(-c2cnc(N3CCCC3(C)C)nc2)n1)n1cnc2c1c(=O)n(C)c(=O)n2C` [Compound 1, (S)-2-(1,3-dimethyl-2,6-dioxo-2,3-dihydro-1H-purin-7(6H)-yl)-N-(2′-(2,2-dimethylpyrrolidin-1-yl)-[2,5′-bipyrimidin]-4-yl)propanamide] the solubility at 40 min [1] was > 14.3 µM, the “Female Hepatic Clearance” value ([2]; dog liver microsomes, female) was 18 mL/min/kg and the half-life at 1 μM [2, 6] was 18 min. The “Male Hepatic Clearance” value ([2]; dog liver microsomes, male) was 22 mL/min/kg, the half-life at 1 μM ([2]; dog liver microsomes, male, read-out: Male Half-Life) was 10 min and the half-life at 1 μM [2, 7] was 39.2 min. The “Female Hepatic Clearance” value ([2]; rat liver microsomes, female) was 20 mL/min/kg, the half-life at 1 μM ([2]; rat liver microsomes, female, read-out: Female Half-Life) was 46 min and the “Male Hepatic Clearance” value ([2]; rat liver microsomes, male) was 29 mL/min/kg. The half-life at 1 μM [2, 8] was 22 min, the “Duration 0-2 min” value ([3]; 1 mg/kg IV) was 35.50 s and the “Duration 0-5 min” value ([3]; 1 mg/kg IV) was 153.25 s. The “Duration 0-2 min” value ([3]; 3 mg/kg IV) was 6.25 s, the “Duration 0-5 min” value ([3]; 3 mg/kg IV) was 111.25 s and the “Human Liver Microsomes Hepatic Clearance” value [4] was 16 mL/min/kg. It also gave a half-life at 1 μM [4] of 9 min and an IC50 [5, 9] of 5.15 nM.

Work on `C[C@@H](C(=O)Nc1ccnc(-c2cnc(N3CCC[C@H]3C(F)(F)F)nc2)n1)n1cnc2c1c(=O)n(C)c(=O)n2C` [Compound 2, (S)-2-(1,3-dimethyl-2,6-dioxo-2,3-dihydro-1H-purin-7(6H)-yl)-N-(2′-((S)-2-(trifluoromethyl)pyrrolidin-1-yl)-[2,5′-bipyrimidin]-4-yl)propanamide] yielded a solubility at 40 min [1] of ~32.4 µM (≈ 17.6 µg/mL), a half-life at 1 μM ([2]; dog liver microsomes, both sexes, read-out: Half-Life both sexes) of 22.9 min and a half-life at 1 μM [2, 6] of 22.9 min. The half-life at 1 μM [2, 7] was > 60 min, the “Male Hepatic Clearance” value ([2]; rat liver microsomes, male) was 2 mL/min/kg and the half-life at 1 μM [2, 8] was 787 min. For the same molecule, the “reduction of pain behaviors from 0-5 minutes” value ([3]; 1 mg/kg PO, vs vehicle, did not reach statistical significance) was ~14%, the “decrease in the duration of pain behaviors from 0-2 minutes” value ([3]; 1 mg/kg PO, vs vehicle, not statistically significant) was ~14% and the “decrease in formalin-induced pain behaviors from 0-2 minutes” value ([3]; 3 mg/kg PO, vs vehicle) was ~72%. For the same molecule, the “reduction of duration of pain behaviors from 0-5 minutes” value ([3]; 3 mg/kg PO, vs vehicle) was ~46%, the “Duration 0-2 min” value [3, 10] was 14.50 s and the “Duration 0-5 min” value [3, 10] was 146.14 s. The “Duration 0-2 min” value [3, 11] was 12.00 s, the “Duration 0-5 min” value [3, 11] was 118.10 s and the “Duration 0-2 min” value [3, 12] was 19.00 s. The “Duration 0-5 min” value [3, 12] was 135.84 s, the “Duration 0-2 min” value [3, 13] was 22.75 s and the “Duration 0-5 min” value [3, 13] was 156.61 s. For the same molecule, the “Duration 0-2 min” value [3, 14] was 82.50 s, the “Duration 0-5 min” value [3, 14] was 185.43 s and the “Duration 0-2 min” value [3, 15] was 96.63 s. For the same molecule, the “Duration 0-5 min” value [3, 15] was 197.15 s, the “Duration 0-2 min” value [3, 16] was 62.50 s and the “Duration 0-5 min” value [3, 16] was 181.40 s. For the same molecule, the “decrease in the duration of formalin-induced pain behaviors 0-2 minutes” value ([3]; 10 mg/kg PO, 15 minute to 6 hour pre-treatment, vs vehicle) was 30-87%, the “duration of formalin-mediated pain behaviors” value ([3]; 10 mg/kg PO, 30 minutes to 6 hours prior to formalin injection) was “significantly decreased the duration of formalin-mediated pain behaviors” and the “decrease in formalin-induced pain behaviors from 0-2 minutes” value ([3]; 10 mg/kg PO, vs vehicle) was ~89%. The “reduction of duration of pain behaviors from 0-5 minutes” value ([3]; 10 mg/kg PO, vs vehicle) was ~60%, the “Duration 0-2 min” value [3, 17] was 73.00 s and the “Duration 0-5 min” value [3, 17] was 157.38 s. For the same molecule, the “Duration 0-2 min” value [3, 18] was 23.25 s, the “Duration 0-5 min” value [3, 18] was 99.00 s and the “Duration 0-2 min” value [3, 19] was 9.25 s. For the same molecule, the “Duration 0-5 min” value [3, 19] was 73.50 s, the “Human Liver Microsomes Hepatic Clearance” value [4] was 8 mL/min/kg and the half-life at 1 μM [4] was 43 min. For the same molecule, the IC50 [5, 9] was 6.87 nM and the IC50 ([5]; hTRPA1, 10 μM AITC, read-out: IC50 Inward current) was 6.9 ± 3.1 nM.

In the case of `C[C@@H](C(=O)Nc1ccnc(-c2cnc(N3CCC[C@@H]3C(F)(F)F)nc2)n1)n1cnc2c1c(=O)n(C)c(=O)n2C` [Compound 4, (S)-2-(1,3-dimethyl-2,6-dioxo-2,3-dihydro-1H-purin-7(6H)-yl)-N-(2′-((R)-2-(trifluoromethyl)pyrrolidin-1-yl)-[2,5′-bipyrimidin]-4-yl)propanamide], the solubility at 40 min [1] is reported as > 31.3 µM, the half-life at 1 μM [2, 7] is reported as 72.6 min and the “Duration 0-2 min” value [3, 20] is reported as 76.13 s. For the same molecule, the “Duration 0-5 min” value [3, 20] was 197.88 s, the “Duration 0-2 min” value [3, 21] was 80.38 s and the “Duration 0-5 min” value [3, 21] was 186.25 s. For the same molecule, the “Duration 0-2 min” value ([3]; 3 mpk PO, solution) was 45.25 s, the “Duration 0-5 min” value ([3]; 3 mpk PO, solution) was 175.88 s and the “Duration 0-2 min” value ([3]; 3 mpk PO, suspension) was 51.13 s. For the same molecule, the “Duration 0-5 min” value ([3]; 3 mpk PO, suspension) was 163.25 s, the “Duration 0-2 min” value ([3]; 10 mpk PO, solution) was 47.13 s and the “Duration 0-5 min” value ([3]; 10 mpk PO, solution) was 191.00 s. The “Duration 0-2 min” value ([3]; 10 mpk PO, suspension) was 38.13 s, the “Duration 0-5 min” value ([3]; 10 mpk PO, suspension) was 144.25 s and the half-life at 1 μM [4] was 19.8 min. The IC50 [5, 9] was 11.3 nM.
